# In patent US20230295200A1 (REGENTS OF THE UNIVERSITY OF MICHIGAN, priority 2022, published 2023):
# Molecular target: T1, STAT6 protein (Homo sapiens, UniProt P42226)
# T1 sequence (P42226 1-847): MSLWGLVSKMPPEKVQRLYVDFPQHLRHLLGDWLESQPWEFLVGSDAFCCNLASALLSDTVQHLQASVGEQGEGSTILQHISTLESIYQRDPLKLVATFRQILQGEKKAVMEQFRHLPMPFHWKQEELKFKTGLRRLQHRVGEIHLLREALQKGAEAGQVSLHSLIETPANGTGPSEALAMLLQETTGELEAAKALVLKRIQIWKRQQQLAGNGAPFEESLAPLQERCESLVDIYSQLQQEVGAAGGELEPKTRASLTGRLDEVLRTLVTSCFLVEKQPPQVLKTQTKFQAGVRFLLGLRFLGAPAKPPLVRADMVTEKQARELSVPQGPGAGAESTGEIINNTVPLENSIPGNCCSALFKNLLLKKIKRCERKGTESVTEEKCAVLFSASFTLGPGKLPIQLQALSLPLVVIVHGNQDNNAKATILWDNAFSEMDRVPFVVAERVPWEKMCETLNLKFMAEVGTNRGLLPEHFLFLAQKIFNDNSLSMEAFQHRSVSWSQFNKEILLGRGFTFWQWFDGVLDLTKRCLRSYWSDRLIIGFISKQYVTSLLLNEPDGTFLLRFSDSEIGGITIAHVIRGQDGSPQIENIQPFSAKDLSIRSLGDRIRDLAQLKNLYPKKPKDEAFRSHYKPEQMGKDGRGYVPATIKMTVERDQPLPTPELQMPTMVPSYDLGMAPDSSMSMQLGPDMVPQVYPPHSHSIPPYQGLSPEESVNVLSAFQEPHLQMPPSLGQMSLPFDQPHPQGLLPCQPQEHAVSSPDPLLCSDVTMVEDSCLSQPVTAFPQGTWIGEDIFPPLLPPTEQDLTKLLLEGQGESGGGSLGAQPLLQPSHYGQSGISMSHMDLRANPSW
# Assay: Fluorescence polarization (FP) binding assay, STAT6
# Settings: FP competition, 5 nM fluorescein-labeled tracer, 200 nM protein, PBS pH7.4; read-out: Binding STAT6
# Method: Evaluation of the activity of the inhibitors may be accomplished by fluorescence polarization (FP) experiments. A representative general protocol is the following:
# Fluorescence polarization (FP) experiments are performed in black round-bottom plates using the CLARIOstar microplate reader. To each well, fluorescein-labeled tracer and STAT5 or STAT6 protein are added in assay buffer. […] The inhibition constants are determined as the concentration of the STAT5 or STAT6 at which 50% of the ligand is bound.
# Fluorescence polarization (FP) experiments were performed in 96-well, black round-bottom plates (Microfluor 2, Fisher Scientific) using the CLARIOstar microplate reader (BMG Labtech). To each well, 5 nM of fluoresceinlabeled tracer and 200 nM of STAT5 and/or STAT6 protein were added to a final volume of 100 μl in the assay buffer (PBS pH7.4+0.01% BGG+0.01% Tween-20, 2 mM DTT). The plate was mixed on a shaker for 15 m and incubated at room temperature for 1 h to reach equilibrium. […] All experimental data were analyzed using Prism 8.0 software (GraphPad Software), and the inhibition constants were determined by nonlinear curve fitting as the concentration of the STAT5 and/or STAT6 at which 50% of the ligand is bound.
row,Structure (SMILES),Ki [nM]
1,"CC(C)(C)[C@H](NC(=O)c1cc2cc(C(F)(F)P(=O)(O)O)ccc2s1)C(=O)N1Cc2ccccc2C[C@H]1C(=O)N1CCOC(c2ccc(F)c(Cl)c2)C1 (stereo partly drawn) [Compound 239, ((2-(((2S)-1-((3S)-3-(2-(3-chloro-4-fluorophenyl)morpholine-4-carbonyl)-3,4-dihydroisoquinolin-2(1H)-yl)-3,3-dimethyl-1-oxobutan-2-yl)carbamoyl)benzo[b]thiophen-5-yl)difluoromethyl)phosphonic acid]",1000 to 10000
2,"Cc1cc(C2CN(C(=O)[C@@H]3Cc4ccccc4CN3C(=O)[C@@H](NC(=O)c3cc4cc(C(F)(F)P(=O)(O)O)ccc4s3)C(C)(C)C)CCO2)ccc1F (stereo partly drawn) [Compound 241, (difluoro(2-(((2S)-1-((3S)-3-(2-(4-fluoro-3-methylphenyl)morpholine-4-carbonyl)-3,4-dihydroisoquinolin-2(1H)-yl)-3,3-dimethyl-1-oxobutan-2-yl)carbamoyl)benzo[b]thiophen-5-yl)methyl)phosphonic acid]",1000 to 10000
3,"CC(C)(C)[C@H](NC(=O)c1cc2cc(C(F)(F)P(=O)(O)O)ccc2s1)C(=O)N1Cc2ccccc2C[C@H]1C(=O)N1CCCCC(c2ccccc2)C1 (stereo partly drawn) [Compound 244, ((2-(((2S)-3,3-dimethyl-1-oxo-1-((3S)-3-(3-phenylazepane-1-carbonyl)-3,4-dihydroisoquinolin-2(1H)-yl)butan-2-yl)carbamoyl)benzo[b]thiophen-5-yl)difluoromethyl)phosphonic acid]",1000 to 10000
4,"CC(C)(C)[C@H](NC(=O)c1cc2cc(C(F)(F)P(=O)(O)O)ccc2s1)C(=O)N1Cc2ccccc2C[C@H]1C(=O)N1CCCC(c2ccc(Cl)cc2)C1 (stereo partly drawn) [Compound 246, ((2-(((2S)-1-((3S)-3-(3-(4-chlorophenyl)piperidine-1-carbonyl)-3,4-dihydroisoquinolin-2(1H)-yl)-3,3-dimethyl-1-oxobutan-2-yl)carbamoyl)benzo[b]thiophen-5-yl)difluoromethyl)phosphonic acid]",100 to 1000
5,"CC(C)(C)[C@H](NC(=O)c1cc2cc(C(F)(F)P(=O)(O)O)ccc2s1)C(=O)N1CCC[C@H]1C(=O)N1CCOC(c2cc(F)cc(F)c2)C1 (stereo partly drawn) [Compound 265, ((2-(((2S)-1-((2S)-2-(2-(3,5-difluorophenyl)morpholine-4-carbonyl)pyrrolidin-1-yl)-3,3-dimethyl-1-oxobutan-2-yl)carbamoyl)benzo[b]thiophen-5-yl)difluoromethyl)phosphonic acid]",100 to 1000
6,"CC(C)(C)[C@H](NC(=O)c1cc2cc(C(F)(F)P(=O)(O)O)ccc2s1)C(=O)N1CCC[C@H]1C(=O)N1CC(C(=O)O)CC(c2ccccc2)C1 (stereo partly drawn) [Compound 266, 1-(((S)-2-(5-(difluoro(phosphono)methyl)benzo [b]thiophene-2-carboxamido)-3,3-dimethylbutanoyl)-L-prolyl)-5-phenylpiperidine-3-carboxylic acid]",1000 to 10000
7,"O=C(N[C@H](C(=O)N1CCC[C@H]1C(=O)N1CCO[C@H](c2ccccc2)C1)C1CCNCC1)c1cc2cc(C(F)(F)P(=O)(O)O)ccc2s1 [Compound 269, (difluoro(2-(((S)-2-oxo-2-((S)-2-((R)-2-phenylmorpholine-4-carbonyl)pyrrolidin-1-yl)-1-(piperidin-4-yl)ethyl)carbamoyl)benzo[b]thiophen-5-yl)methyl)phosphonic acid]",100 to 1000
8,"O=C(N[C@@H](Cc1ccncc1)C(=O)N1CCC[C@H]1C(=O)N1CCO[C@H](c2ccccc2)C1)c1cc2cc(C(F)(F)P(=O)(O)O)ccc2s1 [Compound 270, (difluoro(2-(((S)-1-oxo-1-((S)-2-((R)-2-phenylmorpholine-4-carbonyl)pyrrolidin-1-yl)-3-(pyridin-4-yl)propan-2-yl)carbamoyl)benzo[b]thiophen-5-yl)methyl)phosphonic acid]",100 to 1000
9,"O=C(N[C@@H](Cc1cccnc1)C(=O)N1CCC[C@H]1C(=O)N1CCO[C@H](c2ccccc2)C1)c1cc2cc(C(F)(F)P(=O)(O)O)ccc2s1 [Compound 271, (difluoro(2-(((S)-1-oxo-1-((S)-2-((R)-2-phenylmorpholine-4-carbonyl)pyrrolidin-1-yl)-3-(pyridin-3-yl)propan-2-yl)carbamoyl)benzo[b]thiophen-5-yl)methyl)phosphonic acid]",100 to 1000

# Second part, the molecule after the results:
row,Ki [nM],Structure (SMILES)
1,100 to 1000,"CC(C)(C)[C@H](NC(=O)c1cc2cc(C(F)(F)P(=O)(O)O)ccc2s1)C(=O)N1Cc2ccccc2C[C@H]1C(=O)N1CCOC(c2ccc(F)cc2F)C1 (stereo partly drawn) [Compound 237, ((2-(((2S)-1-((3S)-3-(2-(2,4-difluorophenyl)morpholine-4-carbonyl)-3,4-dihydroisoquinolin-2(1H)-yl)-3,3-dimethyl-1-oxobutan-2-yl)carbamoyl)benzo[b]thiophen-5-yl)difluoromethyl)phosphonic acid]"
2,100 to 1000,"CC(C)(C)[C@H](NC(=O)c1cc2cc(C(F)(F)P(=O)(O)O)ccc2s1)C(=O)N1Cc2ccccc2C[C@H]1C(=O)N1CCOC(c2ccc(F)c(F)c2)C1 (stereo partly drawn) [Compound 238, ((2-(((2S)-1-((3S)-3-(2-(3,4-difluorophenyl)morpholine-4-carbonyl)-3,4-dihydroisoquinolin-2(1H)-yl)-3,3-dimethyl-1-oxobutan-2-yl)carbamoyl)benzo[b]thiophen-5-yl)difluoromethyl)phosphonic acid]"
3,100 to 1000,"CC(C)(C)[C@H](NC(=O)c1cc2cc(C(F)(F)P(=O)(O)O)ccc2s1)C(=O)N1Cc2ccccc2C[C@H]1C(=O)N1CCOC(c2ccc(Cl)c(Cl)c2)C1 (stereo partly drawn) [Compound 240, ((2-(((2S)-1-((3S)-3-(2-(3,4-dichlorophenyl)morpholine-4-carbonyl)-3,4-dihydroisoquinolin-2(1H)-yl)-3,3-dimethyl-1-oxobutan-2-yl)carbamoyl)benzo[b]thiophen-5-yl)difluoromethyl)phosphonic acid]"
4,100 to 1000,"CC(C)(C)[C@H](NC(=O)c1cc2cc(C(F)(F)P(=O)(O)O)ccc2s1)C(=O)N1Cc2ccccc2C[C@H]1C(=O)N1CCOC(c2cc(Cl)cc(Cl)c2)C1 (stereo partly drawn) [Compound 242, ((2-(((2S)-1-((3S)-3-(2-(3,5-dichlorophenyl)morpholine-4-carbonyl)-3,4-dihydroisoquinolin-2(1H)-yl)-3,3-dimethyl-1-oxobutan-2-yl)carbamoyl)benzo[b]thiophen-5-yl)difluoromethyl)phosphonic acid]"
5,100 to 1000,"CC(C)(C)[C@H](NC(=O)c1cc2cc(C(F)(F)P(=O)(O)O)ccc2s1)C(=O)N1Cc2ccccc2C[C@H]1C(=O)N1CCOC(c2cc(F)c(Cl)cc2Cl)C1 (stereo partly drawn) [Compound 243, ((2-(((2S)-1-((3S)-3-(2-(2,4-dichloro-5-fluorophenyl)morpholine-4-carbonyl)-3,4-dihydroisoquinolin-2(1H)-yl)-3,3-dimethyl-1-oxobutan-2-yl)carbamoyl)benzo[b]thiophen-5-yl)difluoromethyl)phosphonic acid]"
6,100 to 1000,"CC(C)(C)[C@H](NC(=O)c1cc2cc(C(F)(F)P(=O)(O)O)ccc2s1)C(=O)N1Cc2ccccc2C[C@H]1C(=O)N1CCCC(c2cccc(F)c2)C1 (stereo partly drawn) [Compound 245, (difluoro(2-(((2S)-1-((3S)-3-(3-(3-fluorophenyl)piperidine-1-carbonyl)-3,4-dihydroisoquinolin-2(1H)-yl)-3,3-dimethyl-1-oxobutan-2-yl)carbamoyl)benzo[b]thiophen-5-yl)methyl)phosphonic acid]"
